In patent US11401278B2, “Macrocyclic indole derivatives” (The Broad Institute, Inc., priority 2017, dated 2022) one finds IC50 and EC50 data, which are given here for three compounds.

One data set deals with BCL-2 (Homo sapiens (Human), UniProt P10415). Put plainly: Protein-protein interaction assay BCL-2/Bad BH3 peptide (BCL-2 assay, TR-FRET). The format is binding. As to conditions: His-BCL-2 / Bad BH3 peptide, median. The gist of the method: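 His-BCL-2 (1-211, E. coli) at 1 nM preincubated 10 min at 22 °C with compound (11 concentrations, 0.1 nM-20 μM, duplicates), then 1 nM biotinylated Bad BH3 peptide added. After 1 h at 22 °C plus overnight at 4 °C, TR-FRET 665/620 ratio normalised to DMSO and no-BCL-2 controls, IC50 from 4-parameter fit.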
For orientation: In TR-FRET formats the signal depends on donor and acceptor labels being close together.

Data set [1] deals with SUDHL5. The experiment in a line: Induction of caspase-3/7 activity (Assay 4), SUDHL5. The data set is classed as cell-based. To be noted: caspase-3/7 induction, 3 hours, median. The gist of the method: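 Caspase-3/7 activity measured by Caspase-Glo 3/7 luminescence in DLBCL cells after 3 h compound treatment at 37 °C. Medium-only background subtracted. EC50 fitted with C0 fixed at 1 and top set to the reference compound's plateau/max induction.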

Data set [2] deals with SUDHL5. Put plainly: Antiproliferation assay (Assay 7), SUDHL5. The format is cell-based. To be noted: CellTiter-Glo, 72 hours, median, read-out: Antiproli SUDHL5 [M] (median) IC50. The gist of the method: (§1)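 Anti-proliferative effect is determined from CellTiter-Glo signal after a 72-hour incubation at 37° C, with a time-zero reference plate measured in parallel.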
(In ATP-based viability assays light output follows the ATP content of the culture.)

The next data set deals with MV-4-11. The experiment in a line: Antiproliferation assay (Assay 7), MV-4-11. The data set is classed as cell-based. To be noted: CellTiter-Glo, 72 hours, several values per example, listed as 08, read-out: Antiproli MV-4-11 [M] IC50. The gist of the method: as §1
The subject of another data set is HMC-1-8. The experiment in a line: Antiproliferation assay (Assay 7), HMC-1-8. The data set is classed as cell-based. To be noted: CellTiter-Glo, several values per example, read-out: Antiproli HMC-1-8 [M] IC50. The method in brief:
as §1

In data set [3] the test system is SUDHL5. Put plainly: Induction of cytotoxicity (Assay 6), SUDHL5. To be noted: read-out: Cytotox SUDHL5 [M] (median) IC50, CellTiter-Glo, 5 hours, SUDHL5.

Read-outs that look alike come from different tables or passages of the source.

Sequence of BCL-2 (P10415 other isoform, or with tags, fused parts or gaps): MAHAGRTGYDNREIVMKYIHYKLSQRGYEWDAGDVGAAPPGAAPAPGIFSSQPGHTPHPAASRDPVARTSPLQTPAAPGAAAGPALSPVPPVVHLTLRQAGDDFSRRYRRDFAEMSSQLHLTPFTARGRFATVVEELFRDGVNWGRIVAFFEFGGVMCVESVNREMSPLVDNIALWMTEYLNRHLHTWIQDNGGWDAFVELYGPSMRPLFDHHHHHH

Consider `CCc1c2c(nn1C)CN(C)S(=O)(=O)CCCn1c(C(=O)O)c(CCCOc3cccc4cc(F)ccc34)c3ccc(F)c-2c31` (single isomer, unassigned; enantiomer 1) [Example 8, (+)-3-Ethyl-4-fluoro-7-{3-[(6-fluoronaphthalen-1-yl)oxy]propyl}-2,14-dimethyl-13,13-dioxo-10,11,12,13,14,15-hexahydro-2H-13λ^6-pyrazolo[3′,4′:4,5][1,2,8]thiadiazacycloundecino-[6,7,8-hi]indole-8-carboxylic acid (Enantiomer 1)], for which the IC50 at BCL-2 was over 20000 nM; in the data set on SUDHL5 [2], 7.6e-07 M; with MV-4-11, 1.18e-06 M; in the data set on HMC-1-8 (72 h) it was 2.2e-06 M; in the data set on SUDHL5 [3] it was 7.7e-07 M. Moreover, the EC50 in the data set on SUDHL5 [1] came out at 580 nM.
Turning to `CCc1c2c(nn1C)C(CCC1CCOCC1)N(C)S(=O)(=O)CCCn1c(C(=O)O)c(CCCOc3cccc4cc(F)ccc34)c3ccc(Cl)c-2c31` (single isomer, unassigned; enantiomer 4) [Example 64, (−)-4-chloro-3-ethyl-7-{3-[(6-fluoronaphthalen-1-yl)oxy]propyl}-2,14-dimethyl-15-[2-(oxan-4-yl)ethyl]-13,13-dioxo-10,11,12,13,14,15-hexahydro-2H-13lambda^6-pyrazolo[3′,4′:4,5][1,2,8]thiadiazacycloundecino[6,7,8-hi]indole-8-carboxylic acid (Enantiomer 4)], the IC50 against BCL-2 is over 20000 nM; in the data set on SUDHL5 [2], 1.4e-06 M; with HMC-1-8 (72 hours), 1.1e-05 M; in the data set on SUDHL5 [3] it was 1.2e-06 M. The compound further registered an EC50 in the data set on SUDHL5 [1] of 1200 nM.
For `Cc1c2c(nn1C)CN(C1CC1)S(=O)(=O)CCCn1c(C(=O)O)c(CCCOc3cccc4ccccc34)c3ccc(Cl)c-2c31` [Example 40, (rac)-4-chloro-14-cyclopropyl-2,3-dimethyl-7-[3-(1-naphthyloxy)propyl]-11,12,14,15-tetrahydro-2H,10H-pyrazolo[3′,4′:4,5][1,2,8]thiadiazacycloundecino[6,7,8-hi]indole-8-carboxylic acid 13,13-dioxide], the IC50 was over 20000 nM at BCL-2, 2.6e-06 M in the data set on SUDHL5 [2], 7.2e-06 M in the data set with HMC-1-8 (72 hours) and 2e-06 M in the data set with SUDHL5 [3]. This compound registered an EC50 at SUDHL5 [1] of 1900 nM.

For orientation: IC50 means the concentration at which inhibition is half-maximal. Broadly, the EC50 is the concentration needed to bring the measured effect to its halfway point.
